ChEMBL document CHEMBL1909046, “DrugMatrix in vitro pharmacology data”

Columns and labels:
Carbonic anhydrase 2 = Carbonic anhydrase 2 (Homo sapiens, UniProt P00918); experiment: DRUGMATRIX: Carbonic Anhydrase II enzyme inhibition (substrate: 4-Nitrophenyl acetate (4-NPA)); format: tissue-based; settings: erythrocyte; Not Active = under 50% inhibition at 10 µM
D(4) dopamine receptor = target: T1, D(4) dopamine receptor (Homo sapiens, UniProt P21917); experiment: DRUGMATRIX: Dopamine D4.2 radioligand binding (ligand: [3H] Spiperone); format: cell membranes, CHO-K1, Membrane; settings: cho-k1; Not Active = under 50% inhibition at 10 µM
T1 sequence (P21917 whole entry): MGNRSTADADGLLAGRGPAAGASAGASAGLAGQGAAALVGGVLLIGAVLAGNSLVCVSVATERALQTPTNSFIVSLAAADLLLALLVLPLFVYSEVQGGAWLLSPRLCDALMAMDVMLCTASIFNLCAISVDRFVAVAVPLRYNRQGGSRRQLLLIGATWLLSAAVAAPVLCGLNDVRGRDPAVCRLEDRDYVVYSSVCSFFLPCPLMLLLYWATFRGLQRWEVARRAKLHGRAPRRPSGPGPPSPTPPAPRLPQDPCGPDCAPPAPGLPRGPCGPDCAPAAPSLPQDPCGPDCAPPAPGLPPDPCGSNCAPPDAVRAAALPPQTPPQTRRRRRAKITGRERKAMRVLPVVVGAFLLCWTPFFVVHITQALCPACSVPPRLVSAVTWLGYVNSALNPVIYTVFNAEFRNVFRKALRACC

[1] = DRUGMATRIX: Glutamate, NMDA, Phencyclidine radioligand binding (ligand: [3H] TCP); format: cell membranes, Rattus norvegicus, Wistar, Cerebral cortex, Membrane; settings: Not Active = under 50% inhibition at 10 µM
[2] = target: T2, Nitric oxide synthase, inducible (Mus musculus, UniProt P29477); parameters: species or system Escherichia coli;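 also: inhibition of iNOS enzyme activity measured with L-arginine as substrate; in other assays of this panel Not Active means under 50% inhibition at 10 µM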
T2 sequence (P29477 whole entry): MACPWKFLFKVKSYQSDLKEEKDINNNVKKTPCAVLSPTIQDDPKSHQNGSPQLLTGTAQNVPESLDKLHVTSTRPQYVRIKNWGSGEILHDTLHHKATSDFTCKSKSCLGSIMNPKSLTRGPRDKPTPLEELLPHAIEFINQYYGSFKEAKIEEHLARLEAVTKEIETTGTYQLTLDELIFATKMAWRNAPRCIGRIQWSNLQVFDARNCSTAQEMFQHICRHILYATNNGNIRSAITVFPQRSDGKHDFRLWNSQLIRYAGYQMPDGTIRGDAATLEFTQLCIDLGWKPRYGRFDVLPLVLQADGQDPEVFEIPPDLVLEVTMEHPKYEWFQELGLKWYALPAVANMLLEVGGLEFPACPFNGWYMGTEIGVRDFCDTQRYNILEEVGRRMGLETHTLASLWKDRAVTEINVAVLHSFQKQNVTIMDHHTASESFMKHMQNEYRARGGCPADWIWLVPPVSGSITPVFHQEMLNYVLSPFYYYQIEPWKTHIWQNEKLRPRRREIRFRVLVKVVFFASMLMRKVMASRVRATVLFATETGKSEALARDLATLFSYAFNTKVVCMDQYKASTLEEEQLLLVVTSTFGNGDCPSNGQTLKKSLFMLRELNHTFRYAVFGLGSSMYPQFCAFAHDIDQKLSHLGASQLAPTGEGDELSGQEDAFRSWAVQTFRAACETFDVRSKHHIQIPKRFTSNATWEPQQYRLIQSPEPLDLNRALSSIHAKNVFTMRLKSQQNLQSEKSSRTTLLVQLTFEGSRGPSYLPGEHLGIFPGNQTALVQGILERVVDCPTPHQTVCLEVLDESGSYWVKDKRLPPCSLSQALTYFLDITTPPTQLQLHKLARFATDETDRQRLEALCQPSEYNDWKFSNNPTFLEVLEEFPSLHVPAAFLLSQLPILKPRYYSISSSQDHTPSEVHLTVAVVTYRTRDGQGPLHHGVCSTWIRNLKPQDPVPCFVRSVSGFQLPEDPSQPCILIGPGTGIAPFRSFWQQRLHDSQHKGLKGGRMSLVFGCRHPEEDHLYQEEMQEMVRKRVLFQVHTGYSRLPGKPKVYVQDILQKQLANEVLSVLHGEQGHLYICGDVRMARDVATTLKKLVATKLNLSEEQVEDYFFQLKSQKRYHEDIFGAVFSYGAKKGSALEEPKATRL

[3] = target: Mitogen-activated protein kinase 1 (Homo sapiens, UniProt P28482); experiment: DRUGMATRIX: Protein Serine/Threonine Kinase, ERK2 enzyme inhibition (substrate: Myelin Basic Protein); parameters: species or system Escherichia coli; settings: Not Active = under 50% inhibition at 10 µM
Sequence of Mitogen-activated protein kinase 1 (P28482 whole entry): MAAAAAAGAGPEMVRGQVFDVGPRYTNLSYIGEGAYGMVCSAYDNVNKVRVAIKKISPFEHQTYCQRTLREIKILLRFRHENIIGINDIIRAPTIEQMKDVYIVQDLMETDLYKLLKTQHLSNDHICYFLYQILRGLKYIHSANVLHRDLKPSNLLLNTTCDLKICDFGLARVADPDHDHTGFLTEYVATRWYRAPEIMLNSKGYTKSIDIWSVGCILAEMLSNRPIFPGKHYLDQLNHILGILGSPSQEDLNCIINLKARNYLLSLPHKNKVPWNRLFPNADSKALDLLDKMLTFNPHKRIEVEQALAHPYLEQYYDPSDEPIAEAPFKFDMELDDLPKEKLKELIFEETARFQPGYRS

[4] = target: Tyrosine-protein kinase Lck (Homo sapiens, UniProt P06239); experiment: DRUGMATRIX: Protein Tyrosine Kinase, LCK enzyme inhibition (substrate: Poly(Glu:Tyr)); format: cell-based, Insect cells; settings: insect cells; Not Active = under 50% inhibition at 10 µM
Sequence of Tyrosine-protein kinase Lck (P06239 whole entry): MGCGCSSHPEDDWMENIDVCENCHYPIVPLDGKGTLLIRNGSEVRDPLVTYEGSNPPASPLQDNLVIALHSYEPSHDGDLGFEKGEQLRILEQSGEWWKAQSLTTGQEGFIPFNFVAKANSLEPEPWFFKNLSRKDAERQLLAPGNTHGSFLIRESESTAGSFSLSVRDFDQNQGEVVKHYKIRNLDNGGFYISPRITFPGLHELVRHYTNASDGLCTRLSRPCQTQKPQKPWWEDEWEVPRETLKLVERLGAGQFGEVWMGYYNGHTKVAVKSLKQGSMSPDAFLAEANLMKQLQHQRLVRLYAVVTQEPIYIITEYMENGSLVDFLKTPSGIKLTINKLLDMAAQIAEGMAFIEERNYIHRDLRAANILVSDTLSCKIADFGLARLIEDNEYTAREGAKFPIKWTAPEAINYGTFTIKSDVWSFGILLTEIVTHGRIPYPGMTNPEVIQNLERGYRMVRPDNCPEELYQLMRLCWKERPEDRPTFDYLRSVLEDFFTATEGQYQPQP

Cytochrome P450 1A2 = target: T3, Cytochrome P450 1A2 (Homo sapiens, UniProt P05177); settings: bti-tn-5b1-4; also: in other assays of this panel Not Active means under 50% inhibition at 10 µM
T3 sequence (P05177 whole entry): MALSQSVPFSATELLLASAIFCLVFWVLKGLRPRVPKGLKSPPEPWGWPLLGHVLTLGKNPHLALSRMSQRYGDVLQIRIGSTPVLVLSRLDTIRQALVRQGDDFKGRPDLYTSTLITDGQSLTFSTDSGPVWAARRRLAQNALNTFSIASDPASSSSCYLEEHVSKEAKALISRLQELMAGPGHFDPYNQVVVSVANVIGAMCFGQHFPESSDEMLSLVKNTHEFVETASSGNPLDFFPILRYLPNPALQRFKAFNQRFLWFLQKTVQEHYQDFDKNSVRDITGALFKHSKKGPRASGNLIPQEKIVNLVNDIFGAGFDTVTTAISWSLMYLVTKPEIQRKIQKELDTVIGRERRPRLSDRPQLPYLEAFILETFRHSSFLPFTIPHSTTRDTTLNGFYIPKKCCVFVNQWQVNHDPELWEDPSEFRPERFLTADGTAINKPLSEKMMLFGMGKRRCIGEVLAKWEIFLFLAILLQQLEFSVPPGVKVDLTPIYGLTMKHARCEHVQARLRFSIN

Cytochrome P450 2C19 = Cytochrome P450 2C19 (Homo sapiens, UniProt P33261); settings: bti-tn-5b1-4; also: in other assays of this panel Not Active means under 50% inhibition at 10 µM
Sequence of Cytochrome P450 2C19 (P33261 whole entry): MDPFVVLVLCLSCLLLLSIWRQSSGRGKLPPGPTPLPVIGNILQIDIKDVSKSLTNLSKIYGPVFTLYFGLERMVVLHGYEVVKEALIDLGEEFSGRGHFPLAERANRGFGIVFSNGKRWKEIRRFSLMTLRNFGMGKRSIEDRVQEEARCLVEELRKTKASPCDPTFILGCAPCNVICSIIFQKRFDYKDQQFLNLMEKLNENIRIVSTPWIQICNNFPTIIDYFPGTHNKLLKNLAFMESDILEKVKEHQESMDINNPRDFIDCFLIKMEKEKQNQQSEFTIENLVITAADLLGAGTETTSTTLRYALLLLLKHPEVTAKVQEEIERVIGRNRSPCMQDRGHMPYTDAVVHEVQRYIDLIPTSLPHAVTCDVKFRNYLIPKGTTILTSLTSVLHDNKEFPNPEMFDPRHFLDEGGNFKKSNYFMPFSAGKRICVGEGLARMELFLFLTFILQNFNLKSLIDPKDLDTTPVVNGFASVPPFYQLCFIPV

CN/C(=N\CCSCc1nc[nH]c1C)NC#N [CIMETIDINE]
Not Active: IC50 (Carbonic anhydrase 2) | IC50 (D(4) dopamine receptor) | IC50 [1] | Ki [1] | IC50 [2] | IC50 [3] | IC50 [4] | IC50 (Cytochrome P450 1A2) | Ki (Cytochrome P450 1A2) | IC50 (Cytochrome P450 2C19) | Ki (Cytochrome P450 2C19)

COc1cc(N)c(Cl)cc1C(=O)NC1CCN(CCCOc2ccc(F)cc2)CC1OC (stereo unspecified) [CISAPRIDE]
Not Active: IC50 (Carbonic anhydrase 2) | IC50 (D(4) dopamine receptor) | IC50 [1] | Ki [1] | IC50 [2] | IC50 [3] | IC50 [4] | IC50 (Cytochrome P450 1A2) | Ki (Cytochrome P450 1A2) | IC50 (Cytochrome P450 2C19) | Ki (Cytochrome P450 2C19)

CCC(=O)O[C@]1(C(=O)CCl)[C@@H](C)C[C@H]2[C@@H]3CCC4=CC(=O)C=C[C@]4(C)[C@@]3(F)[C@@H](O)C[C@@]21C [CLOBETASOL PROPIONATE]
Not Active: IC50 (Carbonic anhydrase 2) | IC50 (D(4) dopamine receptor) | IC50 [1] | Ki [1] | IC50 [2] | IC50 [3] | IC50 [4] | IC50 (Cytochrome P450 1A2) | Ki (Cytochrome P450 1A2) | IC50 (Cytochrome P450 2C19) | Ki (Cytochrome P450 2C19)

O=C1CN=C(c2ccccc2Cl)c2cc([N+](=O)[O-])ccc2N1 [CLONAZEPAM]
Not Active: IC50 (Carbonic anhydrase 2) | IC50 (D(4) dopamine receptor) | IC50 [1] | Ki [1] | IC50 [2] | IC50 [3] | IC50 [4] | IC50 (Cytochrome P450 1A2) | Ki (Cytochrome P450 1A2) | IC50 (Cytochrome P450 2C19) | Ki (Cytochrome P450 2C19)

C[C@@H]1C[C@H]2[C@@H]3CCC4=CC(=O)C=C[C@]4(C)[C@@]3(F)[C@@H](O)C[C@]2(C)[C@H]1C(=O)CO [DESOXIMETASONE]
Not Active: IC50 (Carbonic anhydrase 2) | IC50 (D(4) dopamine receptor) | IC50 [1] | Ki [1] | IC50 [2] | IC50 [3] | IC50 [4] | IC50 (Cytochrome P450 1A2) | Ki (Cytochrome P450 1A2) | IC50 (Cytochrome P450 2C19) | Ki (Cytochrome P450 2C19)

CN(C)CC[C@@H](c1ccc(Cl)cc1)c1ccccn1 [DEXCHLORPHENIRAMINE]
Not Active: IC50 (Carbonic anhydrase 2) | IC50 (D(4) dopamine receptor) | IC50 [1] | Ki [1] | IC50 [2] | IC50 [3] | IC50 [4] | IC50 (Cytochrome P450 1A2) | Ki (Cytochrome P450 1A2) | IC50 (Cytochrome P450 2C19) | Ki (Cytochrome P450 2C19)

C[C@@H]1CC[C@@]2(OC1)O[C@H]1[C@@H](O)[C@H]3[C@@H]4CC[C@H]5C[C@@H](O[C@@H]6O[C@H](CO)[C@H](O[C@@H]7O[C@H](CO)C(O)[C@H](O[C@@H]8OC[C@@H](O)[C@H](O)[C@H]8O)[C@H]7O[C@@H]7O[C@H](CO)[C@H](O)[C@H](O[C@@H]8O[C@H](CO)[C@@H](O)[C@H](O)[C@H]8O)[C@H]7O)[C@H](O)[C@H]6O)[C@H](O)C[C@]5(C)[C@H]4CC[C@]3(C)[C@H]1[C@@H]2C (stereo partly specified) [DIGITONIN]
Not Active: IC50 (Carbonic anhydrase 2) | IC50 (D(4) dopamine receptor) | IC50 [1] | Ki [1] | IC50 [2] | IC50 [3] | IC50 [4] | IC50 (Cytochrome P450 1A2) | Ki (Cytochrome P450 1A2) | IC50 (Cytochrome P450 2C19) | Ki (Cytochrome P450 2C19)

OC(CCCN1CCCCC1)(c1ccccc1)c1ccccc1 [DIPHENIDOL]
Not Active: IC50 (Carbonic anhydrase 2) | IC50 (D(4) dopamine receptor) | IC50 [1] | Ki [1] | IC50 [2] | IC50 [3] | IC50 [4] | IC50 (Cytochrome P450 1A2) | Ki (Cytochrome P450 1A2) | IC50 (Cytochrome P450 2C19) | Ki (Cytochrome P450 2C19)

C[C@H]1O[C@@H](n2cc(F)c(=O)[nH]c2=O)[C@H](O)[C@@H]1O [DOXIFLURIDINE]
Not Active: IC50 (Carbonic anhydrase 2) | IC50 (D(4) dopamine receptor) | IC50 [1] | Ki [1] | IC50 [2] | IC50 [3] | IC50 [4] | IC50 (Cytochrome P450 1A2) | Ki (Cytochrome P450 1A2) | IC50 (Cytochrome P450 2C19) | Ki (Cytochrome P450 2C19)

Cn1c(=O)c2c(ncn2CC(O)CO)n(C)c1=O (stereo unspecified) [DYPHYLLINE]
Not Active: IC50 (Carbonic anhydrase 2) | IC50 (D(4) dopamine receptor) | IC50 [1] | Ki [1] | IC50 [2] | IC50 [3] | IC50 [4] | IC50 (Cytochrome P450 1A2) | Ki (Cytochrome P450 1A2) | IC50 (Cytochrome P450 2C19) | Ki (Cytochrome P450 2C19)

C[C@@H](CO)NC(=O)[C@@H]1C=C2c3cccc4[nH]cc(c34)C[C@H]2N(C)C1 [ERGONOVINE]
Not Active: IC50 (Carbonic anhydrase 2) | IC50 (D(4) dopamine receptor) | IC50 [1] | Ki [1] | IC50 [2] | IC50 [3] | IC50 [4] | IC50 (Cytochrome P450 1A2) | Ki (Cytochrome P450 1A2) | IC50 (Cytochrome P450 2C19) | Ki (Cytochrome P450 2C19)
